In ChEMBL document CHEMBL1201862, “PubChem BioAssay data set” (2004):
The source made the active and inactive calls.

Legend:
Estrogen receptor = target: T1, Estrogen receptor (Homo sapiens, UniProt P03372);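 also: potency for inhibiting coactivator peptide recruitment to the receptor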
T1 sequence (P03372 whole entry): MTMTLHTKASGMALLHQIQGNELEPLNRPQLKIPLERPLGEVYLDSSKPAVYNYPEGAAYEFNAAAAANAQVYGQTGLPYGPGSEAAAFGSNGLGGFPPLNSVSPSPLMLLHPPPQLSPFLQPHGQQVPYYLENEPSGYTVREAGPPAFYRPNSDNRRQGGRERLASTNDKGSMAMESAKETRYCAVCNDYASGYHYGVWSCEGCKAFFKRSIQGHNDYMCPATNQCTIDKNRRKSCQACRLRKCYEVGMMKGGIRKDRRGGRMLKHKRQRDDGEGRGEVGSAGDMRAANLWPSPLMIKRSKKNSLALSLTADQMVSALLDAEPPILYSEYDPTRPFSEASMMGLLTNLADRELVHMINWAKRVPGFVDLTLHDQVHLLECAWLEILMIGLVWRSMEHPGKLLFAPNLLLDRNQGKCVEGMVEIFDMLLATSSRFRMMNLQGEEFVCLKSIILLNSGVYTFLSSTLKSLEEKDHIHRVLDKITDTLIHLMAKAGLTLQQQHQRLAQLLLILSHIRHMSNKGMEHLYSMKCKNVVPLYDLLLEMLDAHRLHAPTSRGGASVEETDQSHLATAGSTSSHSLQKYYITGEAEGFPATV

Estrogen receptor beta [1] = target: T2, Estrogen receptor beta (Homo sapiens, UniProt Q92731);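 also: recombinant ER-beta bound to coactivator SRC1 peptide in presence of estradiol agonist; inhibitors block coactivator peptide binding and lower the FRET signal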
Estrogen receptor beta [2] = target: T2, Estrogen receptor beta; assay: ERβ–SRC-3 coactivator interaction inhibitors, confirmation, orthogonal assay, biochemical, ELISA, streptavidin-HRP readout (AID 1060)
[3] = system: Streptococcus sp. 'group A'; assay: growth inhibition of control SK(-) GAS strain, dose response, counter-screen for streptokinase expression inhibitor project, luminescence, kanamycin, BacTiterGlo, confirmation (AID 1900); format: functional, organism-based
[4] = target: Induced myeloid leukemia cell differentiation protein Mcl-1 (Homo sapiens, UniProt Q07820); format: functional
Streptococcus = assay: Group A Streptococcus viability loss, dose response, counter-screen for streptokinase expression inhibitor project, luminescence, BacTiterGlo (AID 1915); format: functional, organism-based;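 also: potency for reduction of bacterial viability or growth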
[5] = target: Eukaryotic translation initiation factor 4E (Mus musculus, UniProt P63073); assay: eIF4E–eIF4G protein interaction inhibitors, dose response, biochemical, TR-FRET (AID 855); format: functional;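 also: potency for disrupting eIF4E binding to eIF4GI seen as loss of FRET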
[6] = target: DNA (cytosine-5)-methyltransferase 1 (Homo sapiens, UniProt P26358); assay: DNMT1 methyltransferase inhibitors, confirmation, biochemical, fluorescent molecular beacon (AID 602386); format: functional
HEK293 [7] = assay: NOD1 signaling inhibitors, primary screen, cell-based, luminescence, uHTS (AID 1578); format: functional; settings: Homo sapiens
HEK293 [8] = assay: cells; format: functional, cell-based; settings: Homo sapiens
HEK293 [9] = assay: cells; format: functional, cell-based; settings: Homo sapiens; remark: listed apart in the source
[10] = target: Nucleotide-binding oligomerization domain-containing protein 2 (Homo sapiens, UniProt Q9HC29); assay: NOD2 signaling inhibitors, cell-based, luminescence, uHTS, HEK293 (AID 1566); format: functional
HEK293 [11] = assay: NOD2 signaling inhibitors in MDP-stimulated cells, cell-based, uHTS, luminescence (AID 2001); format: functional; settings: Homo sapiens
HEK293 [12] = assay: cells; format: functional, cell-based; settings: Homo sapiens; remark: listed apart in the source
[13] = A Cell Based Secondary Assay To Explore Cytotoxicity of Compounds that Sensitize Mycobacterium Tuberculosis to Beta-Lactam Antibiotics.; format: functional
[14] = target: T3, Corticotropin-releasing factor receptor 2/Corticotropin-releasing factor-binding protein (Homo sapiens, UniProt P24387+Q13324); assay: Dose Response confirmation of uHTS hits for small molecule antagonists of the CRF-binding protein and CRF-R2 receptor complex.; format: functional; settings: read-out: IC50_Mean
T3 sequence (Q13324 whole entry): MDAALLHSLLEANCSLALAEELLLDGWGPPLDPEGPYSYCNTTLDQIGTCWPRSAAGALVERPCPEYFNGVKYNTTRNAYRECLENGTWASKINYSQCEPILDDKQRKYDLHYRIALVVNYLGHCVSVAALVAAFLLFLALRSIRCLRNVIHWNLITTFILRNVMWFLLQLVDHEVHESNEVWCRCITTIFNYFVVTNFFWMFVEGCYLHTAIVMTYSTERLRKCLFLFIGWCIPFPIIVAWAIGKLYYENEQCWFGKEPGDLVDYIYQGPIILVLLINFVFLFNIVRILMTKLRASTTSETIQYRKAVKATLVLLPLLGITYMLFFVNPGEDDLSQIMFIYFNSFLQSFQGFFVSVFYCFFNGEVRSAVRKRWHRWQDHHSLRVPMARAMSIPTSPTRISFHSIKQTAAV
T3 sequence (P24387 whole entry): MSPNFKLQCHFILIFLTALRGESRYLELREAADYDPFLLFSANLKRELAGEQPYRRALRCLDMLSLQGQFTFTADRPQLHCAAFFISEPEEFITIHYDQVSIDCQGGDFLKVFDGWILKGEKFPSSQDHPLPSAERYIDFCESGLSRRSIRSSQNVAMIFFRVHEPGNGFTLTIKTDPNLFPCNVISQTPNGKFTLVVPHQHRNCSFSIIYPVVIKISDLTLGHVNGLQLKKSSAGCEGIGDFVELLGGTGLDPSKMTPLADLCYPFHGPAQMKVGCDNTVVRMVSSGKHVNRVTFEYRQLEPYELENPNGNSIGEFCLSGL

[15] = target: T3, Corticotropin-releasing factor receptor 2/Corticotropin-releasing factor-binding protein; assay: activators of CRF receptor 2 with binding protein – uHTS hits, confirmation (AID 602473); format: functional; settings: read-out: EC50_Mean
[16] = target: G-protein coupled receptor 55 (Homo sapiens, UniProt Q9Y2T6); assay: GPR55 agonists via beta-arrestin recruitment, primary screen, imaging, U2OS cells, beta-arrestin-GFP redistribution (AID 1961); format: functional
Cytochrome P450 2C9 = Cytochrome P450 2C9 (Homo sapiens, UniProt P11712)
Cytochrome P450 2C9, sequence (P11712 whole entry): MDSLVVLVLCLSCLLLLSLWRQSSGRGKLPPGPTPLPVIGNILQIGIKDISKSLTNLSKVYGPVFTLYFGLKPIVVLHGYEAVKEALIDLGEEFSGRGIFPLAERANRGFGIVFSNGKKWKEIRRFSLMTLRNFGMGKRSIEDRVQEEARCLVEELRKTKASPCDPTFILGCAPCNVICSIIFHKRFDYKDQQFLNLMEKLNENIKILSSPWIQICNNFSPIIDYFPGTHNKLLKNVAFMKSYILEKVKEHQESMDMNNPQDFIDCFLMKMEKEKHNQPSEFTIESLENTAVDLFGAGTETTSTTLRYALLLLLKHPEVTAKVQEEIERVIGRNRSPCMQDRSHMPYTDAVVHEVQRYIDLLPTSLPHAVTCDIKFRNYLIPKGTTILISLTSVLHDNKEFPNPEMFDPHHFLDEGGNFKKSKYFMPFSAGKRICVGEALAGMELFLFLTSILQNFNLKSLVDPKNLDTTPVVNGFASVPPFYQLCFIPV

T2 sequence (Q92731 whole entry): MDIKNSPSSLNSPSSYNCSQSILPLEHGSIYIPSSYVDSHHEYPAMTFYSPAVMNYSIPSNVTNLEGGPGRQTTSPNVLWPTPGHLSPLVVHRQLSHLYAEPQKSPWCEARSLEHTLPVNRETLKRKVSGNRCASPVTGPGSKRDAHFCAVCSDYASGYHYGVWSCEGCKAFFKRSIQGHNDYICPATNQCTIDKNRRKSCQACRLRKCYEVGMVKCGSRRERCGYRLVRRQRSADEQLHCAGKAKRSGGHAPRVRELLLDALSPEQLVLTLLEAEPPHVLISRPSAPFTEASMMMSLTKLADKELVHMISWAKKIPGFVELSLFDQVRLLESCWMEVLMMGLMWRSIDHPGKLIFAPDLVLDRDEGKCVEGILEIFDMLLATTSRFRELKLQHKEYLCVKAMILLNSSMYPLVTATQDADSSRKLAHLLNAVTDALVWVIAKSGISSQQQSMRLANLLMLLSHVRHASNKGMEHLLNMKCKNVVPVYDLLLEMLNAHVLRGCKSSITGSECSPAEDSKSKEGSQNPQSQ
G-protein coupled receptor 55, sequence (Q9Y2T6 whole entry): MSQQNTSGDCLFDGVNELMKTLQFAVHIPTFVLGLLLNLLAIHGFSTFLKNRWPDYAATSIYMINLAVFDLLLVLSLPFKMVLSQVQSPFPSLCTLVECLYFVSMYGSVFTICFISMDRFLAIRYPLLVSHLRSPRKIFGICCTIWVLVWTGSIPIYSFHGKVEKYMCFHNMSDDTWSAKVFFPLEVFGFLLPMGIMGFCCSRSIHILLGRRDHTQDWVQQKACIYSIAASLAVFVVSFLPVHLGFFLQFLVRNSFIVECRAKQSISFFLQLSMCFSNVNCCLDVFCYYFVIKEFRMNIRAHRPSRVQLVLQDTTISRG
Eukaryotic translation initiation factor 4E, sequence (P63073 whole entry): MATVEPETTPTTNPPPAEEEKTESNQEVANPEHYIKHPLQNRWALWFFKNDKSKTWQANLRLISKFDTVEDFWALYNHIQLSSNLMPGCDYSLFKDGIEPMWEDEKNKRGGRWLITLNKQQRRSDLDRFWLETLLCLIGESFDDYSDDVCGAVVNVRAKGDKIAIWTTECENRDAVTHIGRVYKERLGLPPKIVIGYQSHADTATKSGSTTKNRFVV
DNA (cytosine-5)-methyltransferase 1, sequence (P26358 whole entry): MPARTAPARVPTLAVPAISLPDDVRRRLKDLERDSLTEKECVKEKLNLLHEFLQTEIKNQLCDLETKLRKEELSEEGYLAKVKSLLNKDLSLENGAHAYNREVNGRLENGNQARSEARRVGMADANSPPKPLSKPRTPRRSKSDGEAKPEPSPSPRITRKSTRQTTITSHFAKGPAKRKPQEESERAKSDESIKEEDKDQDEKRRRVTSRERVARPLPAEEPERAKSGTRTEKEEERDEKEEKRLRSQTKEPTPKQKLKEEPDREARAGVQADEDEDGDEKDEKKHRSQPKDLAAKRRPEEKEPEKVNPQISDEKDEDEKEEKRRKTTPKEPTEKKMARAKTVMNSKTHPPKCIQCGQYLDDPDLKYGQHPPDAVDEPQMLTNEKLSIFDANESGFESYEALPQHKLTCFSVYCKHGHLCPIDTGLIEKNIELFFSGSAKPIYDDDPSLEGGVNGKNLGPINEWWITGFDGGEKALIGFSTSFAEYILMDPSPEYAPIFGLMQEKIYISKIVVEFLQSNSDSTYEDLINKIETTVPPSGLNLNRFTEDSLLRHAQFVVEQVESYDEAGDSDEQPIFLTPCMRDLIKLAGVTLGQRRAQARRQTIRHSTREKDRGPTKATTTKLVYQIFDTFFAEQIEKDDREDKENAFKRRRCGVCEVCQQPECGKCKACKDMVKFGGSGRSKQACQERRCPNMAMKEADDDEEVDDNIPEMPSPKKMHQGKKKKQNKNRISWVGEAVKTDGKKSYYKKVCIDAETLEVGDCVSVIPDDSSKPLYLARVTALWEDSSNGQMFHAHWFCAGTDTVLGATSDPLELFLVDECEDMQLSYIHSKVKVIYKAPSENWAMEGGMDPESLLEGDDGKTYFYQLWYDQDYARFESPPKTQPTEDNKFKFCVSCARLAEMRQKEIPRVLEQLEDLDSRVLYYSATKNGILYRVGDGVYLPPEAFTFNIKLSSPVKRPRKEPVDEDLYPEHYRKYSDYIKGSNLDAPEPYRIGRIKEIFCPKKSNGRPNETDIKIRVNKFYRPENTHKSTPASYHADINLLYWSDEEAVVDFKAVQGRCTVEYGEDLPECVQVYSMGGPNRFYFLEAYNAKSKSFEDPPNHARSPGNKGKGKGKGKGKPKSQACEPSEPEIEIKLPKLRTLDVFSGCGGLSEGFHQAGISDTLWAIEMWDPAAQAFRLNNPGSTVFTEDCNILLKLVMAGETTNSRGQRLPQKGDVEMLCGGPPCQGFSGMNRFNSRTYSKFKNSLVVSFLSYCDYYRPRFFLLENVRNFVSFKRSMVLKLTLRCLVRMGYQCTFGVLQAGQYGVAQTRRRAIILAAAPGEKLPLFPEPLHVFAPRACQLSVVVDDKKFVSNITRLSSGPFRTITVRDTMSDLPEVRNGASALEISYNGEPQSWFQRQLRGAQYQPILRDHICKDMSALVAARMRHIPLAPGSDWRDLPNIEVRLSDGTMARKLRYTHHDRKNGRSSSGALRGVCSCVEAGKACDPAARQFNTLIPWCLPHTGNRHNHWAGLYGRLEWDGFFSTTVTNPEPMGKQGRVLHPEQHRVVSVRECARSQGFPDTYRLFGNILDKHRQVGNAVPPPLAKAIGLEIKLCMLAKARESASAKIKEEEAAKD
Induced myeloid leukemia cell differentiation protein Mcl-1, sequence (Q07820 whole entry): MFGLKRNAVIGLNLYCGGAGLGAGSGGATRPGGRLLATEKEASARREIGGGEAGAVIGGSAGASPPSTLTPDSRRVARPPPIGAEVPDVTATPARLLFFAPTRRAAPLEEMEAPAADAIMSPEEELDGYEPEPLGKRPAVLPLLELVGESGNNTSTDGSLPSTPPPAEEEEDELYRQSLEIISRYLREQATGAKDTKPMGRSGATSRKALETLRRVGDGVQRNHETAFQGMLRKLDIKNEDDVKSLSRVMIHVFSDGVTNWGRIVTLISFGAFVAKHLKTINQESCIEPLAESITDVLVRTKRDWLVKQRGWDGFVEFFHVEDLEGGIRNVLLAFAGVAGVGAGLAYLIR
Nucleotide-binding oligomerization domain-containing protein 2, sequence (Q9HC29 whole entry, the tested form may be a part): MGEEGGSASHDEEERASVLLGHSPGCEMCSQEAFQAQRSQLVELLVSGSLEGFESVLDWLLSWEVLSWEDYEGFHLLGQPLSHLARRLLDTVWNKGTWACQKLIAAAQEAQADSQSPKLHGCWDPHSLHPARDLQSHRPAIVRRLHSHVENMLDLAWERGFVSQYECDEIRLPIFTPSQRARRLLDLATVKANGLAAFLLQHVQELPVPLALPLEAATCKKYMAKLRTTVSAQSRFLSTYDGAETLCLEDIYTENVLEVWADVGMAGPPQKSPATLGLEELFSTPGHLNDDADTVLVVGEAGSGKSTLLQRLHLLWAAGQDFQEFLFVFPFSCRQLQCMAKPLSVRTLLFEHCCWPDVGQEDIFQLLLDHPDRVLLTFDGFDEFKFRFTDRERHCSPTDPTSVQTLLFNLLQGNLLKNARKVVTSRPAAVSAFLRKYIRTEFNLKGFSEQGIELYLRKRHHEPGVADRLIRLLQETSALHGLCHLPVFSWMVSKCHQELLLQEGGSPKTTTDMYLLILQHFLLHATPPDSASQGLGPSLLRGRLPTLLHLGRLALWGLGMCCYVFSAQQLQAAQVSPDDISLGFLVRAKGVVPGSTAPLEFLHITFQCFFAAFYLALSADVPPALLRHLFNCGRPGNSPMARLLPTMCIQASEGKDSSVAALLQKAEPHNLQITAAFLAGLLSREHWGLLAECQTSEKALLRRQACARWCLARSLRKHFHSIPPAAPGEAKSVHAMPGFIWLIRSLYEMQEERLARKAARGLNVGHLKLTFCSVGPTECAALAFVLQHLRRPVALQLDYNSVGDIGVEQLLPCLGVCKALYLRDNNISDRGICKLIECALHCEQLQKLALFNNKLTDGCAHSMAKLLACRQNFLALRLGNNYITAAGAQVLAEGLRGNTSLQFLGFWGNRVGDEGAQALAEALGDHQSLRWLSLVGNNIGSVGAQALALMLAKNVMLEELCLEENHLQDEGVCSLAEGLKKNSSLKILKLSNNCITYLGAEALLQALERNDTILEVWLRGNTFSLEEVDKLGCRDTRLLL

Compound: C=CCn1c(SCC(=O)NC(=O)NCc2ccco2)nc2sc(CC)cc2c1=O
- IC50 (Estrogen receptor): 10.1 µM (active)
- IC50 (Estrogen receptor beta [1]): 13.6 µM (active)
- IC50 (Estrogen receptor beta [2]): 0.0317 µM (not active)

Compound: Cc1ccc(NC(=O)CN2C(=O)S/C(=C/c3ccc(-c4cc(C(=O)O)ccc4C)o3)C2=O)cc1C
- EC50 [3]: 2.31 µM (active)
- IC50 (Estrogen receptor): 18.2 µM (active)
- IC50 [4]: 2.05 µM (active)
- EC50 (Streptococcus): 6.89 µM (active)
- IC50 [5]: 14.4 µM (active)
- IC50 [6]: 11.3 µM (active)

Compound: O=C(Nc1cccc(Br)c1)c1ccc(Cl)c(S(=O)(=O)N2CCOCC2)c1
- EC50 (HEK293 [7]): 10.3 µM (active)
- IC50 (HEK293 [8]): 2.87 µM (active)
- IC50 (HEK293 [9]): 6.44 µM (active)
- EC50 [10]: > 20 µM (inactive)
- IC50 (HEK293 [11]): 3.44 µM (active)
- IC50 (HEK293 [12]): > 20 µM (inactive)

Compound: Cc1cc2c(N=NC(=O)C3CC3c3ccccc3)c(O)[nH]c2cc1Br (stereo not given)
- CC50 [13]: 32.8 µM (active)
- IC50 [14]: > 47.1 µM (inactive)
- EC50 [15]: > 53 µM (inactive)

Compound: O=C(CSc1nc2ccccc2o1)N1c2ccccc2Sc2ccc(Cl)cc21
- EC50 [16]: > 32 µM (inactive)
- AC50 (Cytochrome P450 2C9): 3.16 µM (inconclusive)
